Measured values reported in patent US20020197670A1, “Membrane associated progesterone receptor” (priority 2001, published 2002).

Key:
membrane PR in HAEC = test: Fluorescent membrane labeling of HAEC at 4° C.; type: cell-based, human; conditions: for fluorescent membrane labeling / membrane binding: 4° C. (cells impermeable), FIG. 13A
Description: Fluorescent membrane labeling studies were performed with both ligand (progesterone conjugated to BSA) and with antibody C19 at 4° C. Experimentation at cold temperatures keeps the cells impermeable; thus, ligand or antibody cannot enter the cell, and specific binding is restricted to the membrane.
In FIG. 13B, a light microscopy image of the same field as in FIG. 13A is shown to illustrate the position of the cells.
Controls used for these experiments include exposure with BSA and the fluorescent tag in the absence of progesterone for the ligand binding study and use of peptide neutralization for the antibody labeling study. […] Approximately 10% of all cells show positive staining. This percentage has been found by other investigators in experiments with sperm. The reason for this low percentage of staining is not yet clear. One possibility includes differential expression of the membrane PR during the cell cycle.

[1] = tested on: Aortic endothelial cells (HAEC); test: Calcium response of HAEC to progesterone (fluo-3AM fluorescence); type: cell-based, human; conditions: progesterone 50 μM
Description: Aortic endothelial cells were cultured in 100 cm petri dishes. All solutions including washes contained probenecid, a chemical that minimizes leakage of fluorophore from the cells. The medium contained BSA, fluo-3-[…] (fluo-3AM), and pluronic F-127, an agent that facilitates diffusion of fluorophore through cell membranes. The cells were incubated for 1 hour at RT. Following incubation, the cells were washed several times and then treated with trypsin. After washing, the cells were enumerated by counting in a hemacytometer and the cell number was adjusted to a predetermined value. Progesterone (50 μM) was added to cell suspensions just prior to fluorescence measurement. An aliquot of the cell suspension was placed in a cuvette and measured in a SLM-8000C fluorescence spectrophotometer. The cells were excited at 504 nm and emitted fluorescence measured at 526 nm. The data (not shown) establishes an immediate 1.5-fold increase in calcium influx with exposure to progesterone. Since this reaction occurred within 2-3 seconds, it is clear that this is a nongenomic response to a sex steroid.

Compound | fluorescent membrane labeling / membrane binding (membrane PR in HAEC) | increase in calcium influx ([1]; HAEC suspension, fluo-3AM, excitation 504 nm, emission 526 nm, data not shown) [fold] | time within which the calcium reaction occurred ([1]; HAEC) [s] | cells showing positive staining for the membrane PR (membrane PR in HAEC; fluorescent membrane labeling, 4° C., FIGS. 13A-13D)
progesterone conjugated to BSA: progesterone-conjugated bovine serum albumin-fluorescein isothiocyanate (Sigma), ligand for fluorescent membrane labeling | staining of the membrane is well seen | – | – | –
CC(=O)[C@H]1CC[C@H]2[C@@H]3CCC4=CC(=O)CC[C@]4(C)[C@H]3CC[C@]12C [progesterone, Progesterone] | specific membrane binding | 1.5 | 2 to 3 | Approximately 10%
